One experiment addresses TrkC (Homo sapiens, UniProt Q16288). The experiment is described as follows: Surface Plasmon Resonance binding to immobilized TrkC. The following applies: SPR, 25° C., HBS-EP buffer pH 7.4, receptor immobilized on CM4 chip. The method, then:
The TrkA, TrkB and TrkC receptors and p75^NTR were immobilized on a sensor chip, CM4, using an amine-coupling kit as follows: the chip was activated by 20 μl activation solution, N-hydroxysuccinimide, (NHS) and N-ethyl-N′-(3-[…])-carbodiimide (EDC), the protein was immobilized using 30 μl of a mixture of 4 μl (0.5 μg/ml) protein in 50 μl 10 mM sodium acetate buffer (pH 4.0); and the chip was blocked by 35 μl blocking solution (ethanolamine-HCl). The receptor surface was regenerated between ligand injections with 15 μl 2 mM NaCl or 10 mM glycine-HCl, pH 2.5. In the present experiments a flow rate of 5 μl/min was used.
The curve corresponding to the difference between binding to the Trk receptors or the […] receptor and a blank chip was used for analysis.

Experiment [1] deals with cerebellar granule neurons (CGN). The experiment is described as follows: Neurite outgrowth of primary cerebellar granule neurons in culture. The class given is cell-based, rat. The note with it: CGN from 7 day old rats, peptide 3-81 μg/ml, 24 hours. As for the experimental part:
Dissociated cerebellar neurons were isolated from 7 day old rats. Cerebellum was isolated from the brain in ice cold modified Krebs Ringer solution, cleared of blood vessels, roughly homogenised by chopping and then trypsinised. The dissociated cells were washed in the presence of DNAse 1 and soybean trypsin inhibitor. Postnatal hippocampal neurons or cerebellar granule neurons (CGN) were plated at a density of 10,000 cells/cm^2 on uncoated 8-well permanox Lab-Tek chamber slides in Neurobasal medium supplemented with 0.4% (w/v) bovine serum albumin (BSA; Sigma-Aldrich), 2% (v/v) B27 Neurobasal supplement, 1% (v/v) glutamax, 100 U/ml penicillin, 100 μg/ml streptomycin and 2% 1 M HEPES (all from Gibco, BRL). After 24 hours, the neurons were fixed with 4% (v/v) formaldehyde for 20 minutes and thereafter immunostained using primary rabbit antibodies against GAP-43 and Alexa Fluor secondary goat anti-rabbit Ig antibodies. Images of at least 200 neurons for each group in each individual experiment were obtained systematically by computer assisted fluorescence microscopy as previously described (Rønn et al., 2000). Briefly, a Nikon Diaphot inverted microscope with a Nikon Plan 20× objective (Nikon, Tokyo, Japan) coupled to a video camera (Grundig Electronics, Germany) was used for recordings. A software package Prima developed at the Protein Laboratory (Copenhagen, Denmark) was used to make a stereologically based determination of neurite length (Rønn et al., 2000).
CGN prepared as described above were treated with different concentrations (3-81 μg/ml) of peptides NGF-C2, NGF-D, NGF-E, NGF-C1, NGF-EE, BDNF-E or BDNF-EE.

The subject of the next experiment is focal brain injury. The experiment is described as follows: Traumatic brain injury model (focal cryo-lesion of right fronto-parietal cortex), immunohistochemistry. The note with it: lesioned rats, 10 mg/kg/injection subcutaneously on day (−1), 1 and 3. Type of experiment: in vivo, rat. As for the experimental part: A focal brain injury on the right fronto-parietal cortex was made by applying a piece of dry-ice (−78° C.) directly onto the skull for 30 seconds in mice and 60 seconds in rats, as previously described in details (Penkowa et al., 2003).
Histochemistry and immunohistochemistry were performed on sections cut from organs taken from fixated animals. Rats and mice were deeply anesthetized with Brietal and flushed by cardiac perfusion with saline containing heparine (0.9% NaCl, 3 ml/L 5000 IU heparine) for 2 minutes followed by fixation with Zamboni's fixative (pH 7.4) for 4-8 minutes depending on the size of the animal. For immunohistochemical investigation, brain were dissected and postfixed in Zamboni's for 2-3 hours, dehydraded in graded alcohol followed by xylol and subsequently embedded in paraffin before being cut in 3 μm frontal sections throughout the entire area of the cryo lesion. […]
Following treatment as described above, sections were incubated overnight at 5° C. with one of the following primary antibodies: polyclonal rabbit anti-cow glial fibrillary acidic protein (GFAP) 1:250 (a marker for astrocytes; DakoCytomation); monoclonal mouse anti-8-hydroxydeoxyguanosine (8-OH-dG) diluted 1:100 in goat serum (a marker for DNA oxidation; Chemicon, Temacula, Calif., USA). The primary antibody was detected with biotynilated secondary antibodies, incubated with streptavidin-biotin-peroxidase complex for 30 min. […]
In vivo experiments—A focal brain injury on the right fronto-parietal cortex was made by applying a piece of dry-ice (−78° C.) directly onto the skull for 30 seconds in mice and 60 seconds in rats, as previously described in details (Penkowa et al., 2003). […] The primary antibody was detected with biotynilated secondary antibodies, incubated with streptavidin-biotin-peroxidase complex for 30 min. […]

Chain of TrkC (Q16288 32-839, species assumed): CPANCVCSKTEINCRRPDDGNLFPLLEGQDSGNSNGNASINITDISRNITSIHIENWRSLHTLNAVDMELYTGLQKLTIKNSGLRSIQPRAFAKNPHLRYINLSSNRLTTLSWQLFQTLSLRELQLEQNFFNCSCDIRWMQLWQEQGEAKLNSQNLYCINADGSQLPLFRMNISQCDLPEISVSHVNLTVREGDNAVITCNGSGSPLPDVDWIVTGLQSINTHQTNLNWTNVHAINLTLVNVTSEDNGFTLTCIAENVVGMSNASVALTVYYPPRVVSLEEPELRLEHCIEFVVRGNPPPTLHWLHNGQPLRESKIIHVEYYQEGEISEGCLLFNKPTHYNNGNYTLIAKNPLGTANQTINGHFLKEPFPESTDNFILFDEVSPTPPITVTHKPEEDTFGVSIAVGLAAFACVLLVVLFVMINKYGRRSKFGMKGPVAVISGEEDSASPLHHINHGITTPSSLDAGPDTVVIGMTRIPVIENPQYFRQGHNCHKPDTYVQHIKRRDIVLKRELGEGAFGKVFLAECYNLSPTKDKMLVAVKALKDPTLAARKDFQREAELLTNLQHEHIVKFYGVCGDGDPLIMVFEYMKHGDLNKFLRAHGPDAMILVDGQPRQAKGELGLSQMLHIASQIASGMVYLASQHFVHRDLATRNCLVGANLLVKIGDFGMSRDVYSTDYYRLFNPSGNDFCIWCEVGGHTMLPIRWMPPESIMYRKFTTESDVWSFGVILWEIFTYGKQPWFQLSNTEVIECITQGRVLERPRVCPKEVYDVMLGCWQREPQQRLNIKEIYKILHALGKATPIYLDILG

The substance “BDNF: Brain-derived neurotrophic factor, member of the neurotrophin family, reference ligand in SPR” came in with a Kd with TrkC of 14 nM.
With H-CVLSRKAVRRA-OH [NGF-C2], the “neurite outgrowth from primary neurons in culture” value (“neurite outgrowth” below) in experiment [1] is given as “significantly stimulate neurite outgrowth”.
In the case of H-RGIDKRHWNSQ-OH [BDNF-E], the “neurite outgrowth” value in experiment [1] was “significantly stimulate neurite outgrowth”.
H-RGIDSKHWNSY-OH [NGF-E]: the “neurite outgrowth” value in experiment [1] is “significantly stimulate neurite outgrowth”.
Consider H-SYVRALTMDSKKRIGWR-OH [BDNF-EE], for which, in experiment [1], the “neurite outgrowth” value was “significantly stimulate neurite outgrowth”. Besides, in the experiment with focal brain injury, the “cortical astrocytes as reflected by immunostaining for GFAP” value is listed as “activation of cortical astrocytes”, the “microglia activation as reflected by binding of tomato lectin” value is given as “inhibition of microglia activation” and the “oxidative stress as reflected by immunostaining for 8-hydroxydeoxyguanosine” value is reported as “inhibition of oxidative stress”.
Regarding H-TFVKALTMDGKQAAWR-OH [NGF-EE], the “neurite outgrowth” value in experiment [1] is “significantly stimulate neurite outgrowth”.
Turning to “NGF-D: NGF-derived peptide, amino acids 2-14 of SEQ ID NO: 1 (YETKCRDPNPVDSG); lacks the hydrophobic residue of motif I (listed as Homo sapiens)”, in experiment [1], the “neurite outgrowth” value is reported as “does not have neuritogenic activity”.
Consider “RIDTACV (listed as Homo sapiens) [NGF-C1, NGF-derived peptide, motif I]”, for which the “neurite outgrowth” value in experiment [1] is listed as “significantly stimulate neurite outgrowth”.

By Kd is commonly meant the equilibrium constant for the complex coming apart. A higher Kd goes with weaker binding.

Values taken from patent US8008259B2, “Neurotrophin-derived peptide sequences” (Copenhagen University, Techtrans Unit, priority 2005, dated 2011).
